Columns and labels:
HeLa = assay: Proliferation assay (crystal violet), HeLa; format: cell-based; conditions: Homo sapiens, HeLa, 96 h, HeLa cells; 4 days incubation; crystal violet staining; read-out: IC50 inhibition of proliferation, HeLa
Outline: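 Absorbance at 595 nm of crystal-violet-stained cells after 4 days' exposure to 0.001–10 μM compound (0.5% DMSO). Values normalized to a day-0 plate (0%) and untreated cells (100%); IC50 by 4-parameter fit.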

[1] = test system: human cervical tumor cell line HeLa (ATCC CCL-2); assay: SAC-Formation - Paclitaxel-Induced Assay; format: cell-based; conditions: Homo sapiens, HeLa, 24 h, HeLa cells, paclitaxel 0.05 μM, test range 0.005 μM-20 μM, read-out: IC50 [mol/l] SAC-Formation - Paclitaxel-Induced Assay
Outline: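 Read-out is high-content imaging of anti-phospho-H3 Ser10 (mitosis) and Hoechst 33342 (DNA, cell number), with decreased mitotic fraction marking checkpoint breakthrough. Compounds (0.005–20 μM) and 0.05 μM paclitaxel co-added to overnight-plated HeLa for 24 h at 37° C; four-parameter Hill fit.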

Compound	IC50 (HeLa) [µM]	IC50 [1] [µM]
Cc1nsc(Nc2cnc(C(F)(F)F)cn2)c1C(=O)Nc1ccc(C(=O)NC2CCN(CC(F)F)CC2)cc1 [Example 259, N-(4-{[1-(2,2-difluoroethyl)piperidin-4-yl]carbamoyl}phenyl)-3-methyl-5-{[5-(trifluoromethyl)pyrazin-2-yl]amino}-1,2-thiazole-4-carboxamide]	> 10	4.4
Cc1nsc(Nc2cc(C#N)ccn2)c1C(=O)Nc1ccc(OC2CCN(C(=O)OC(C)(C)C)CC2)nc1 [Example 23, tert-Butyl 4-({5-[({5-[(4-cyanopyridin-2-yl)amino]-3-methyl-1,2-thiazol-4-yl}-carbonyl)amino]pyridin-2-yl}oxy)piperidine-1-carboxylate]	2.6	0.032
Cc1nsc(Nc2cnc(C(F)(F)F)cn2)c1C(=O)Nc1ccc(F)c(OC2CCN(CC(F)F)CC2)c1 [Example 265, N-(3-{[1-(2,2-difluoroethyl)piperidin-4-yl]oxy}-4-fluorophenyl)-3-methyl-5-{[5-(trifluoromethyl)pyrazin-2-yl]amino}-1,2-thiazole-4-carboxamide]	0.32	0.15
Cc1nsc(Nc2cnc(C(F)(F)F)cn2)c1C(=O)Nc1ccc(C(=O)N2CCN(CC(F)(F)F)CC2)cc1 [Example 260, 3-methyl-N-(4-{[4-(2,2,2-trifluoroethyl)piperazin-1-yl]carbonyl}phenyl)-5-{[5-(trifluoromethyl)pyrazin-2-yl]amino}-1,2-thiazole-4-carboxamide]	1.5	0.4
Cc1nsc(Nc2cc(C#N)ccn2)c1C(=O)Nc1ccc(OC2CCN(CC(F)(F)F)CC2)nc1 [Example 25, 5-[(4-Cyanopyridin-2-yl)amino]-3-methyl-N-(6-{[1-(2,2,2-trifluoroethyl)piperidin-4-yl]oxy}pyridin-3-yl)-1,2-thiazole-4-carboxamide]	2.1	0.066
Cc1nsc(Nc2cncc(C(F)(F)F)n2)c1C(=O)Nc1ccc(C(=O)N2CCN(CC(F)F)CC2)cc1 [Example 273, N-(4-{[4-(2,2-difluoroethyl)piperazin-1-yl]carbonyl}phenyl)-3-methyl-5-{[6-(trifluoromethyl)pyrazin-2-yl]amino}-1,2-thiazole-4-carboxamide]	7.6	4.8
Cc1nsc(Nc2cc(C#N)ccn2)c1C(=O)Nc1ccc(OC2CCN(CC(F)F)CC2)nc1 [Example 263, 5-[(4-cyanopyridin-2-yl)amino]-N-(6-{[1-(2,2-difluoroethyl)piperidin-4-yl]oxy}pyridin-3-yl)-3-methyl-1,2-thiazole-4-carboxamide]	3.2	3.5
COC(=O)CCc1cccc(NC(=O)c2c(C)nsc2Nc2cnc3ccccc3n2)c1 [Example 257, methyl 3-[3-({[3-methyl-5-(quinoxalin-2-ylamino)-1,2-thiazol-4-yl]carbonyl}amino)phenyl]propanoate]	7.7	2.7
Cc1nsc(Nc2ccc(C#N)cn2)c1C(=O)Nc1ccc(OC2CCN(C(=O)OC(C)(C)C)CC2)nc1 [Example 27, tert-Butyl 4-({5-[({5-[(5-cyanopyridin-2-yl)amino]-3-methyl-1,2-thiazol-4-yl}-carbonyl)amino]pyridin-2-yl}oxy)piperidine-1-carboxylate]	0.63	0.13
Cc1nsc(Nc2cnc(C(F)(F)F)cn2)c1C(=O)Nc1ccc(F)c(OC2CCN(CC(F)(F)F)CC2)c1 [Example 264, N-(4-fluoro-3-{[1-(2,2,2-trifluoroethyl)piperidin-4-yl]oxy}phenyl)-3-methyl-5-{[5-(trifluoromethyl)pyrazin-2-yl]amino}-1,2-thiazole-4-carboxamide]	0.13	0.072

The remaining lines, values ahead:

IC50 (HeLa) [µM]	IC50 [1] [µM]	Compound
0.33	0.48	Cc1nsc(Nc2cnc(C(F)(F)F)cn2)c1C(=O)Nc1ccc(F)c(OCC2CCN(CCC(F)(F)F)CC2)c1 [Example 311, N-(4-fluoro-3-{[1-(3,3,3-trifluoropropyl)piperidin-4-yl]methoxy}phenyl)-3-methyl-5-{[5-(trifluoromethyl)pyrazin-2-yl]amino}-1,2-thiazole-4-carboxamide]
6.2	3.5	Cc1nsc(Nc2cnc3ccccc3n2)c1C(=O)Nc1cccc(NS(=O)(=O)C2CCN(CC(F)F)CC2)c1 [Example 282, N-[3-({[1-(2,2-difluoroethyl)piperidin-4-yl]sulfonyl}amino)phenyl]-3-methyl-5-(quinoxalin-2-ylamino)-1,2-thiazole-4-carboxamide]
2.6	1.4	Cc1nsc(Nc2cncc(C(F)(F)F)n2)c1C(=O)Nc1ccc(OCCCO)nc1 [Example 278, N-[6-(3-hydroxypropoxy)pyridin-3-yl]-3-methyl-5-{[6-(trifluoromethyl)pyrazin-2-yl]amino}-1,2-thiazole-4-carboxamide]
0.26	0.19	Cc1nsc(Nc2cnc(C(F)(F)F)cn2)c1C(=O)Nc1ccc(N(C)C)c(OCCCN(C)CC(F)(F)F)c1 [Example 299, N-[4-(dimethylamino)-3-{3-[methyl(2,2,2-trifluoroethyl)amino]propoxy}phenyl]-3-methyl-5-{[5-(trifluoromethyl)pyrazin-2-yl]amino}-1,2-thiazole-4-carboxamide]
0.69	0.15	Cc1nsc(Nc2cnc(C(F)(F)F)cn2)c1C(=O)Nc1ccc(OCCNCC(F)(F)F)nc1 [Example 322, 3-methyl-N-(6-{2-[(2,2,2-trifluoroethyl)amino]ethoxy}pyridin-3-yl)-5-{[5-(trifluoromethyl)pyrazin-2-yl]amino}-1,2-thiazole-4-carboxamide]
0.23	0.049	Cc1nsc(Nc2cnc(C(F)(F)F)cn2)c1C(=O)Nc1ccc(F)c(OCC2CCN(CC(F)(F)F)CC2)c1 [Example 310, N-(4-fluoro-3-{[1-(2,2,2-trifluoroethyl)piperidin-4-yl]methoxy}phenyl)-3-methyl-5-{[5-(trifluoromethyl)pyrazin-2-yl]amino}-1,2-thiazole-4-carboxamide]
8.9	4.8	Cc1nsc(Nc2cnc3ccccc3n2)c1C(=O)Nc1cccc(NS(=O)(=O)C2CCCN(C(=O)OCc3ccccc3)C2)c1 (centres unmarked) [Example 291, benzyl 3-{[3-({[3-methyl-5-(quinoxalin-2-ylamino)-1,2-thiazol-4-yl]carbonyl}amino)phenyl]sulfamoyl} piperidine-1-carboxylate]
0.38	1.2	Cc1nsc(Nc2cnc(C(F)(F)F)cn2)c1C(=O)Nc1ccc(OC2CCN(CCF)C2)nc1 (centres unmarked) [Example 295, N-(6-{[1-(2-fluoroethyl)pyrrolidin-3-yl]oxy}pyridin-3-yl)-3-methyl-5-{[5-(trifluoromethyl)pyrazin-2-yl]amino}-1,2-thiazole-4-carboxamide]
5.3	4	Cc1nsc(Nc2cnc(C(F)(F)F)cn2)c1C(=O)Nc1ccc(OCCCNCC(F)F)nc1 [Example 293, N-(6-{3-[(2,2-difluoroethyl)amino]propoxy}pyridin-3-yl)-3-methyl-5-{[5-(trifluoromethyl)pyrazin-2-yl]amino}-1,2-thiazole-4-carboxamide]
0.43	0.045	Cc1nsc(Nc2cnc(C(F)(F)F)cn2)c1C(=O)Nc1ccc(F)c(OCC2CCN(CC(F)F)C2)c1 (centres unmarked) [Example 316, N-(3-{[1-(2,2-difluoroethyl)pyrrolidin-3-yl]methoxy}-4-fluorophenyl)-3-methyl-5-{[5-(trifluoromethyl)pyrazin-2-yl]amino}-1,2-thiazole-4-carboxamide]
4.9	1.9	Cc1nsc(Nc2cncc(C(F)(F)F)n2)c1C(=O)Nc1ccc(OCCO)nc1 [Example 276, N-[6-(2-hydroxyethoxy)pyridin-3-yl]-3-methyl-5-{[6-(trifluoromethyl)pyrazin-2-yl]amino}-1,2-thiazole-4-carboxamide]
0.33	0.74	Cc1nsc(Nc2cnc(C(F)(F)F)cn2)c1C(=O)Nc1ccc(OC2CCN(CCC(F)(F)F)C2)nc1 (centres unmarked) [Example 298, 3-methyl-5-{[5-(trifluoromethyl)pyrazin-2-yl]amino}-N-(6-{[1-(3,3,3-trifluoropropyl)pyrrolidin-3-yl]oxy}pyridin-3-yl)-1,2-thiazole-4-carboxamide]
7.8	3.3	Cc1nsc(Nc2cnc3ccccc3n2)c1C(=O)Nc1cccc(NS(=O)(=O)C2CCN(CC(F)(F)F)C2)c1 (centres unmarked) [Example 289, 3-methyl-5-(quinoxalin-2-ylamino)-N-[3-({[1-(2,2,2-trifluoroethyl)pyrrolidin-3-yl]sulfonyl}amino)phenyl]-1,2-thiazole-4-carboxamide]
> 10	9	Cc1nsc(Nc2cncc(C(F)(F)F)n2)c1C(=O)Nc1ccc(C(=O)N2CCN(CCF)CC2)cc1 [Example 274, N-(4-{[4-(2-fluoroethyl)piperazin-1-yl]carbonyl}phenyl)-3-methyl-5-{[6-(trifluoromethyl)pyrazin-2-yl]amino}-1,2-thiazole-4-carboxamide]
0.62	0.055	Cc1nsc(Nc2cnc(C(F)(F)F)cn2)c1C(=O)Nc1ccc(OC2CCN(C(CF)CF)C2)nc1 (centres unmarked) [Example 313, N-(6-{[1-(1,3-difluoropropan-2-yl)pyrrolidin-3-yl]oxy}pyridin-3-yl)-3-methyl-5-{[5-(trifluoromethyl)pyrazin-2-yl]amino}-1,2-thiazole-4-carboxamide]

Reference: patent US20170334899A1, “AMINO-SUBSTITUTED ISOTHIAZOLES” (Bayer Pharma Aktiengesellschaft, priority 2014, published 2017)
